# How the values were obtained:
# [1] = molecular target: T1, Alpha-1D adrenergic receptor (Homo sapiens, UniProt P25100)
# T1 sequence (P25100 whole entry): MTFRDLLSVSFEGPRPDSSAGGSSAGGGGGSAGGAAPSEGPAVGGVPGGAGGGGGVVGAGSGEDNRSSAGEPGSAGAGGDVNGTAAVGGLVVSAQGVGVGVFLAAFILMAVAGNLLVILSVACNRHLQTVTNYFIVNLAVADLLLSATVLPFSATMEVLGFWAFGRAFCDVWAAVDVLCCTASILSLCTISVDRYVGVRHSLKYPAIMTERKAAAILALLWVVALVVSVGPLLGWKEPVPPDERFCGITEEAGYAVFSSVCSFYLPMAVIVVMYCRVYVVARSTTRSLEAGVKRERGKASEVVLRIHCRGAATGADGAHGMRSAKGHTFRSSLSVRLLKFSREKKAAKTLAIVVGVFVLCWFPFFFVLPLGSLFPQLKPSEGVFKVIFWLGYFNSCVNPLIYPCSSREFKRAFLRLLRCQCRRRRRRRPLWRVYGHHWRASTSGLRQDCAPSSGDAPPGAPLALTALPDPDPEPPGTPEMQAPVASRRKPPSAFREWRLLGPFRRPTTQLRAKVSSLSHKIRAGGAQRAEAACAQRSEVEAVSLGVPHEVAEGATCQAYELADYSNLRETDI
# Description: Inhibition of adrenergic Alpha-1D receptor
# D(4) dopamine receptor = molecular target: T2, D(4) dopamine receptor (Homo sapiens, UniProt P21917)
# T2 sequence (P21917 whole entry): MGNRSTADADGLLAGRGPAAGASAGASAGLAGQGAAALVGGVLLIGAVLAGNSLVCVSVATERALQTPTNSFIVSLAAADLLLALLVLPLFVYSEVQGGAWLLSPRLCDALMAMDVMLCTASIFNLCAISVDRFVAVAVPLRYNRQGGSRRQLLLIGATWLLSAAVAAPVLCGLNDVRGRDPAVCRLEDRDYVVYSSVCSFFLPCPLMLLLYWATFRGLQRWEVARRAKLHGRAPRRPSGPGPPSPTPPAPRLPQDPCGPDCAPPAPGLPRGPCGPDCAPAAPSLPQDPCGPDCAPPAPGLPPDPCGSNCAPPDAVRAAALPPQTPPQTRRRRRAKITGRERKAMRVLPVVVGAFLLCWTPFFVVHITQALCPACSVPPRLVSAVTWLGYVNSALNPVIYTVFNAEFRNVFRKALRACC
# Description: Inhibition of dopamine D4 receptor
# [2] = molecular target: T3, Alpha-1B adrenergic receptor (Homo sapiens, UniProt P35368)
# T3 sequence (P35368 whole entry): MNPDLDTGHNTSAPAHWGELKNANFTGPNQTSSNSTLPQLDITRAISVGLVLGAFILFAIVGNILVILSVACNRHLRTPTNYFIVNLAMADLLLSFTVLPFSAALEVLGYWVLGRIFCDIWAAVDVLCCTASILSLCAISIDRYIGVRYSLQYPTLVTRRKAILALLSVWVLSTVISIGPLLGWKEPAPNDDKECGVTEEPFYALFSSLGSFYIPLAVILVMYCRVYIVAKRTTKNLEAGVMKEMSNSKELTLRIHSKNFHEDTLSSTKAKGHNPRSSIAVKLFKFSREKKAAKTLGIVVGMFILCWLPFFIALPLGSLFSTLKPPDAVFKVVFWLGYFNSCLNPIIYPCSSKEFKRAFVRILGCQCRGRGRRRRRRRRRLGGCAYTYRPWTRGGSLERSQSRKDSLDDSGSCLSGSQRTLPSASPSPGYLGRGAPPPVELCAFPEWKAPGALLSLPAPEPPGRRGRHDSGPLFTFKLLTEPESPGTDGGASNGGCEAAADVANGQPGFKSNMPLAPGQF
# Description: Inhibition of adrenergic Alpha-1B receptor
# [3] = molecular target: 5-hydroxytryptamine receptor 7 (Homo sapiens, UniProt P34969)
# Chain of 5-hydroxytryptamine receptor 7 (P34969 whole entry): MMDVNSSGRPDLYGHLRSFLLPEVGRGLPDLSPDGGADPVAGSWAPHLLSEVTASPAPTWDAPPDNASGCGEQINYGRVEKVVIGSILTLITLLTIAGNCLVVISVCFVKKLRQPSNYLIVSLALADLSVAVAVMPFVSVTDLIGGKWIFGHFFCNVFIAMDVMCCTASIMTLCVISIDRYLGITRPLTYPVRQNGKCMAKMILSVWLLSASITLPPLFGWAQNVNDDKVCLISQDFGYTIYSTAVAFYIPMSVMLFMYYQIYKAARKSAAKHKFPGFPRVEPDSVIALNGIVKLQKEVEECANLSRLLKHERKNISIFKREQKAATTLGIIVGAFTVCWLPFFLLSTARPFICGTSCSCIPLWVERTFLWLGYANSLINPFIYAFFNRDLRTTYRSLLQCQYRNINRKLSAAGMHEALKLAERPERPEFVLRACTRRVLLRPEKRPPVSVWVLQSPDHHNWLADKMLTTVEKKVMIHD
# [4] = molecular target: T4, Alpha-1A adrenergic receptor (Homo sapiens, UniProt P35348)
# T4 sequence (P35348 whole entry): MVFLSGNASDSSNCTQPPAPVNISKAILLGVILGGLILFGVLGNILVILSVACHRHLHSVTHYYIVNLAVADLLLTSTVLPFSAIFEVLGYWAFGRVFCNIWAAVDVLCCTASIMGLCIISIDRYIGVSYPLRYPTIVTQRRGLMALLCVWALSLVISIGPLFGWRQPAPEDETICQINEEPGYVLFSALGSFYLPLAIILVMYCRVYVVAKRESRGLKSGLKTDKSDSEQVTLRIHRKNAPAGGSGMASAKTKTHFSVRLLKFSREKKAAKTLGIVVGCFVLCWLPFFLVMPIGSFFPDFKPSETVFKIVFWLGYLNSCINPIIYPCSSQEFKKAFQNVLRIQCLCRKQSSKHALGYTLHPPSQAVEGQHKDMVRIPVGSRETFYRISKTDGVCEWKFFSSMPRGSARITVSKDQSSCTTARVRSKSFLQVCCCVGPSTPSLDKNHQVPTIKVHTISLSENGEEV
# Description: Inhibition of adrenergic alpha1A receptor
# [5] = molecular target: T5, 5-hydroxytryptamine receptor 1A (Homo sapiens, UniProt P08908)
# T5 sequence (P08908 whole entry): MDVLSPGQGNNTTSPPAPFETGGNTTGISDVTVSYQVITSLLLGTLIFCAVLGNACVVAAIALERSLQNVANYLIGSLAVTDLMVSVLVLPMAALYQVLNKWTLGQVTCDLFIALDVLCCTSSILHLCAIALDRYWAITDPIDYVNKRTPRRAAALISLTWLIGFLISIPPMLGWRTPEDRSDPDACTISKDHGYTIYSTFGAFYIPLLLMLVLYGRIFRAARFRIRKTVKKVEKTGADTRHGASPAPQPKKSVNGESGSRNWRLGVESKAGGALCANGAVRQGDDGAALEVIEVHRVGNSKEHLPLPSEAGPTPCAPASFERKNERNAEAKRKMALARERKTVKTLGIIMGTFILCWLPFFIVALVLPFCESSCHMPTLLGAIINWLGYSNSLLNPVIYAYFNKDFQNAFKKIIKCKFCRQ
# [6] = molecular target: 5-hydroxytryptamine receptor 1B (Homo sapiens, UniProt P28222)
# Chain of 5-hydroxytryptamine receptor 1B (P28222 whole entry): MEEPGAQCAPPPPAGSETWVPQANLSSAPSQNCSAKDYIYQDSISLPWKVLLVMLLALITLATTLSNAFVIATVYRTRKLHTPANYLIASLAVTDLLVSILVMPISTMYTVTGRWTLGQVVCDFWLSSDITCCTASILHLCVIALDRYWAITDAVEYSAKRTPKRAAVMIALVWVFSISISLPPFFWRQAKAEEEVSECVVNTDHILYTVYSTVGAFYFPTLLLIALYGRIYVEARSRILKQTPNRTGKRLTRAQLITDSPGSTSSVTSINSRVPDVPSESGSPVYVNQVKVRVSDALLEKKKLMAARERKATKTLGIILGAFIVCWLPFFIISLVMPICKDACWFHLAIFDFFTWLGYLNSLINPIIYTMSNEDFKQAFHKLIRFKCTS
# physchem = conditions: octanol/water, pH 7.4
# [7] = molecular target: T5, 5-hydroxytryptamine receptor 1A; test: biochemical
# Description: Displacement of [3H]8-OH-DPAT from human cloned 5HT1A receptor expressed in HEK293 EBNA cells after 1 hr by liquid scintillation counting
# Liver [8] = test: Biodistribution in Wistar rat liver at 7 MBq, iv after 45 mins; assay type: ADME, organism-based; conditions: in vivo, 0.75 h
# Blood [9] = test: Biodistribution in Wistar rat blood at 7 MBq, iv after 45 mins; assay type: ADME, organism-based; conditions: in vivo, 0.75 h
# Heart [10] = test: Biodistribution in Wistar rat heart at 7 MBq, iv after 45 mins; assay type: ADME, organism-based; conditions: in vivo, 0.75 h
# Striatum [11] = test: Biodistribution in Wistar rat striatum at 7 MBq, iv after 45 mins; assay type: ADME, organism-based; conditions: in vivo, 0.75 h
# Occipital cortex [12] = test: Biodistribution in Wistar rat occipital cortex at 7 MBq, iv after 45 mins; assay type: ADME, organism-based; conditions: in vivo, 0.75 h
# Lung [13] = test: Biodistribution in non-labeled WAY-100635 ptretreated Wistar rat lung at 7 MBq, iv after 45 mins; assay type: ADME, organism-based; conditions: in vivo, 0.75 h
# Heart [14] = test: Biodistribution in non-labeled WAY-100635 ptretreated Wistar rat heart at 7 MBq, iv after 45 mins; assay type: ADME, organism-based; conditions: in vivo, 0.75 h
# Blood [15] = test: Biodistribution in non-labeled WAY-100635 ptretreated Wistar rat blood at 7 MBq, iv after 45 mins; assay type: ADME, organism-based; conditions: in vivo, 0.75 h
# Hippocampus [16] = test: Biodistribution in Wistar rat hippocampus at 7 MBq, iv after 45 mins; assay type: ADME, organism-based; conditions: in vivo, 0.75 h
# Rattus norvegicus [17] = test: Biodistribution in Wistar rat rest cortex at 7 MBq, iv after 45 mins; assay type: ADME, organism-based; conditions: in vivo, 0.75 h
# Rattus norvegicus [18] = test: Biodistribution in Wistar rat frontal cortex at 7 MBq, iv after 45 mins; assay type: ADME, organism-based; conditions: in vivo, 0.75 h
# Cerebellum [19] = test: Biodistribution in Wistar rat cerebellum at 7 MBq, iv after 45 mins; assay type: ADME, organism-based; conditions: in vivo, 0.75 h
# Kidney [20] = test: Biodistribution in Wistar rat kidney at 7 MBq, iv after 45 mins; assay type: ADME, organism-based; conditions: in vivo, 0.75 h
# Lung [21] = test: Biodistribution in Wistar rat lung at 7 MBq, iv after 45 mins; assay type: ADME, organism-based; conditions: in vivo, 0.75 h
# Liver [22] = test: Biodistribution in non-labeled WAY-100635 ptretreated Wistar rat liver at 7 MBq, iv after 45 mins; assay type: ADME, organism-based; conditions: in vivo, 0.75 h
# Kidney [23] = test: Biodistribution in non-labeled WAY-100635 ptretreated Wistar rat kidney at 7 MBq, iv after 45 mins; assay type: ADME, organism-based; conditions: in vivo, 0.75 h
# Thyroid gland = test: Biodistribution in non-labeled WAY-100635 ptretreated Wistar rat thyroid assessed per organ at 7 MBq, iv after 45 mins; assay type: ADME, organism-based; conditions: in vivo, 0.75 h
# Rattus norvegicus [24] = test: Biodistribution in non-labeled WAY-100635 ptretreated Wistar rat frontal cortex at 7 MBq, iv after 45 mins; assay type: ADME, organism-based; conditions: in vivo, 0.75 h
# Occipital cortex [25] = test: Biodistribution in non-labeled WAY-100635 ptretreated Wistar rat occipital cortex at 7 MBq, iv after 45 mins; assay type: ADME, organism-based; conditions: in vivo, 0.75 h
# Rattus norvegicus [26] = test: Biodistribution in non-labeled WAY-100635 ptretreated Wistar rat rest cortex at 7 MBq, iv after 45 mins; assay type: ADME, organism-based; conditions: in vivo, 0.75 h
# Striatum [27] = test: Biodistribution in non-labeled WAY-100635 ptretreated Wistar rat striatum at 7 MBq, iv after 45 mins; assay type: ADME, organism-based; conditions: in vivo, 0.75 h
# Hippocampus [28] = test: Biodistribution in non-labeled WAY-100635 ptretreated Wistar rat hippocampus at 7 MBq, iv after 45 mins; assay type: ADME, organism-based; conditions: in vivo, 0.75 h
# Cerebellum [29] = test: Biodistribution in non-labeled WAY-100635 ptretreated Wistar rat cerebellum at 7 MBq, iv after 45 mins; assay type: ADME, organism-based; conditions: in vivo, 0.75 h
# Nucleic Acid [30] = test: Ratio of drug level in cerebellum to hippocampus in Wistar rat at 7 MBq, iv after 45 mins; assay type: ADME, organism-based; conditions: in vivo, 0.75 h
# Nucleic Acid [31] = test: Ratio of drug level in cerebellum to occipital cortex in Wistar rat at 7 MBq, iv after 45 mins; assay type: ADME, organism-based; conditions: in vivo, 0.75 h
# Nucleic Acid [32] = test: Ratio of drug level in cerebellum to frontal cortex in Wistar rat at 7 MBq, iv after 45 mins; assay type: ADME, organism-based; conditions: in vivo, 0.75 h
# Nucleic Acid [33] = test: Ratio of drug level in cerebellum to striatum in Wistar rat at 7 MBq, iv after 45 mins; assay type: ADME, organism-based; conditions: in vivo, 0.75 h
smiles,measurement,setting,value
O=C(N(CCN1CCN(c2ccccc2O)CC1)c1ccccn1)C12C3C4C1C1C2C3C41I (stereo unspecified),Ki,[1],181 nM
same,Ki,D(4) dopamine receptor,890 nM
same,Ki,[2],25 nM
same,Ki,[3],50 nM
same,Ki,[4],176 nM
same,Ki,[5],1.4 nM
same,Ki,[6],272 nM
same,logD,physchem,4.03
same,IC50,[7],1.5 nM
same,Ki,[7],0.64 nM
COc1ccccc1N1CCN(CCN(C(=O)C23CCC(I)(CC2)C3)c2ccccn2)CC1,IC50,[7],2.02 nM
same,Ki,[7],0.87 nM
O=C(N(CCN1CCN(c2ccccc2O)CC1)c1ccccn1)C12CCC(I)(CC1)CC2,IC50,[7],4.57 nM
same,Ki,[7],1.95 nM
O=C(N(CCN1CCN(c2ccccc2O)CC1)c1ccccn1)C12CC3CC(C1)C(I)C(C3)C2 (stereo unspecified),IC50,[7],3.95 nM
same,Ki,[7],1.68 nM
O=C(C1CCCCC1)N(CCN1CCN(c2ccccc2O)CC1)c1ccccn1,IC50,[7],0.77 nM
same,Ki,[7],0.33 nM
COc1ccccc1N1CCN(CCN(C(=O)C23CCC(I)(CC2)CC3)c2ccccn2)CC1,IC50,[7],2.61 nM
same,Ki,[7],1.11 nM
O=C(N(CCN1CCN(c2ccccc2O)CC1)c1ccccn1)C12CCC(I)(CC1)C2,IC50,[7],1.19 nM
same,Ki,[7],0.47 nM
COc1ccccc1N1CCN(CCN(C(=O)C23CC4CC(CC(I)(C4)C2)C3)c2ccccn2)CC1,IC50,[7],5.04 nM
same,Ki,[7],2.15 nM
COc1ccccc1N1CCN(CCN(C(=O)C23C4C5C2C2C3C4C52[123I])c2ccccn2)CC1 (stereo unspecified),Drug uptake,Liver [8],2.34 % ID/g
same,Drug uptake,Blood [9],0.24 % ID/g
same,Drug uptake,Heart [10],0.16 % ID/g
same,Drug uptake,Striatum [11],0.04 % ID/g
same,Drug uptake,Occipital cortex [12],0.06 % ID/g
same,Drug uptake,Lung [13],0.31 % ID/g
same,Drug uptake,Heart [14],0.2 % ID/g
same,Drug uptake,Blood [15],0.33 % ID/g
same,Drug uptake,Hippocampus [16],0.1 % ID/g
same,Drug uptake,Rattus norvegicus [17],0.05 % ID/g
same,Drug uptake,Rattus norvegicus [18],0.06 %ID
same,Drug uptake,Cerebellum [19],0.05 % ID/g
same,Drug uptake,Kidney [20],1.37 % ID/g
same,Drug uptake,Lung [21],0.28 % ID/g
same,Drug uptake,Liver [22],2.77 % ID/g
same,Drug uptake,Kidney [23],1.32 % ID/g
same,Drug uptake,Thyroid gland,0.01 %ID
same,Drug uptake,Rattus norvegicus [24],0.05 % ID/g
same,Drug uptake,Occipital cortex [25],0.05 % ID/g
same,Drug uptake,Rattus norvegicus [26],0.04 % ID/g
same,Drug uptake,Striatum [27],0.04 % ID/g
same,Drug uptake,Hippocampus [28],0.06 % ID/g
same,Drug uptake,Cerebellum [29],0.05 % ID/g
same,Ratio,Nucleic Acid [30],2.51
same,Ratio,Nucleic Acid [31],1.21
same,Ratio,Nucleic Acid [32],1.16
same,Ratio,Nucleic Acid [33],0.91
COc1ccccc1N1CCN(CCN(C(=O)C23C4C5C2C2C3C4C52I)c2ccccn2)CC1 (stereo unspecified),Ki,[1],98 nM
same,Ki,D(4) dopamine receptor,329 nM
same,Ki,[2],185 nM
same,Ki,[3],161 nM
same,Ki,[4],78 nM
same,Ki,[5],2.2 nM
same,Ki,[6],121 nM
same,logD,physchem,4.14
same,IC50,[7],2.59 nM
same,Ki,[7],1.11 nM
